Values of other authors, collected in patent publication USRE35801E, “Prophylactic and therapeutic composition for circulatory disorders and method of treatment” (priority 1985, dated 1998).

How the values were obtained:
[1] = test system: electroencephalogram under normal state; details: deemed to be a side action in clinic; cited from earlier work
[2] = test system: lipid peroxidation by active oxygen; details: cited from earlier work
[3] = cited from earlier work
central nervous system = details: in vivo; cited from earlier work

SMILES | action against electroencephalogram under normal state [1] | inhibition of lipid peroxidation by active oxygen [2] | solubilizing in water [3] | central nervous system depressant activity (central nervous system)
NC(=O)[C@@H]1CCCN1C(=O)[C@H](Cc1cnc[nH]1)NC(=O)[C@@H]1CCC(=O)N1 [TRH, L-pyrroglutamyl-L-histidyl-L-prolineamide] | exhibites an action | – | – | –
COC1=C(OC)C(=O)C(CCCCCCCCCCO)=C(C)C1=O [idebenone] | – | can inhibit lipid peroxidation by active oxygen | difficulty in solubilizing in water | –
CCN(CC)Cc1nccn1-c1ccc([N+](=O)[O-])cc1C(=O)c1ccccc1Cl [nizofenone] | – | can inhibit lipid peroxidation by active oxygen | – | potent central nervous system depressant activity
